Experimental data reported in ChEMBL document CHEMBL1152694, “Synthetic medicinal chemistry of selected antimalarial natural products” (Bioorg Med Chem, 2009).

Columns and labels:
Plasmodium berghei = test: Antimalarial activity against Plasmodium berghei infected mice (Mus musculus); assay type: functional
[1] = Selectivity ratio of cytotoxicity to human KB cells to antimalarial activity against Plasmodium falciparum; assay type: cell-based

Compound	ED50 (Plasmodium berghei) [µmol/kg]	selectivity ratio [1]
CC1(C)[C@@H](n2cnc3ccccc3c2=O)C(=O)C[C@@H]2[C@@H](O)CCCN21	6	–
CC1(C)[C@H](n2cnc3ccccc3c2=O)CC[C@H]2[C@@H](O)CCCN21	145	–
CC[C@](C)(O)C(=O)O[C@H]1C(=O)O[C@@H]2C[C@H]3C(C)=CC(=O)[C@@H](O)[C@]3(C)[C@H]3[C@@]4(O)OC[C@]32[C@@H]1[C@@H](C)[C@H]4O [GLAUCARUBINONE]	–	285
